Test results published in patent publication US5436343A, “Alkenecarboxylic acid compounds” (Adir et Compagnie, priority 1992, dated 1995).
Where a name gives a salt, the structure may show the parent alone.

Experiments:
[1] = tested on: Dog platelets (aggregation induced by U46619+adrenaline); test: Platelet aggregation in dogs (U46619 + adrenaline, PRP); type: cell-based; settings: Canis lupus familiaris, adrenaline 10 μM then U46619 1.2 μM, 3 min preincubation, 37° C., read-out: IC50 (50% inhibition of the aggregation responses to U46619+adrenaline)
Procedure: Platelet Aggregation in Dogs
After anesthesia of the animal with pentobarbital sodium (30 mg/kg i.v.), arterial blood is withdrawn onto sodium citrate (0.109M) (1 vol. of citrate per 9 vol. of blood). Platelet-rich plasma (PRP) is obtained after centrifugation (20° C.) at 200 g for 10 minutes. The number of platelets in the PRP is 300,000 PL/mm^3 on average. The PRP is stored at the temperature of the room until the time of the test, and is used within 4 hours following withdrawal from the animal.
Dog platelets respond weakly to U46619 alone. […] The PRP is incubated at 37° C. in the presence of the test antagonist for 3 minutes. Aggregation is then obtained by the addition of adrenaline (10 μM) followed by that of U46619 (1.2 μM) 30 seconds later. The effect of the antagonists is measured, and the IC50 is determined as the concentration of the antagonist needed to produce a 50% inhibition of the aggregation responses to U46619+adrenaline.

[2] = target: T1, guinea pig trachea (contractions caused by U46619) (Cavia porcellus, UniProt A0A286Y4I8); test: pA2 on guinea pig trachea (U46619-induced contraction); type: cell-based; settings: guinea pig tracheal rings; U46619 10^-9 M to 10^-5 M; antagonist contact 20 minutes
T1 sequence (A0A286Y4I8 1-347): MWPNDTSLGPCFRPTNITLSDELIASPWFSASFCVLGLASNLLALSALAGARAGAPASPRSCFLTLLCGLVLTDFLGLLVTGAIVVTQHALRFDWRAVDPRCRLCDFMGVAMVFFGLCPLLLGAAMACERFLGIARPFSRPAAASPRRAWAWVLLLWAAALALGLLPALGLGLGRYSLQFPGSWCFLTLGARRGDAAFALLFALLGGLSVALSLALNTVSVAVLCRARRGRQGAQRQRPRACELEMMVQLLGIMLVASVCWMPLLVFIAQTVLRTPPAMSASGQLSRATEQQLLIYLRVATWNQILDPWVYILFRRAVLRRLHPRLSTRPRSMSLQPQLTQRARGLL

[3] = tested on: tracheal pressure in guinea pigs (bronchoconstriction caused by U46619); test: IC50 on tracheal pressure in guinea pigs (U46619-induced bronchoconstriction); type: in vivo, guinea pig; settings: Cavia porcellus, iv, 5 min; anesthetized guinea pigs; U46619 2 μg/kg i.v.; antagonist injected 5 minutes before U46619; read-out: IC50 (dose of antagonist that inhibits by 50% the increase in tracheal pressure caused by U46619)
Source text: ICso on Tracheal Pressure in Guinea Pigs
Male albino guinea pigs (350-400 g) subjected to an 18-hour water diet are anesthetized with ethyl carbamate (1.25 g/kg i.p.). A catheter is introduced into the carotid artery in order to measure the arterial blood pressure by means of a pressure cell. A second catheter is introduced into the jugular vein and is used to inject the pharmacological substances. The trachea is cannulated and the guinea pig is placed in assisted respiration by means of a respirator. The animal's temperature is maintained at 37° C. using a thermostatic blanket. A needle pushed in the tracheal cannula is connected to a pressure cell and enables the tracheal pressure to be recorded.
The guinea pigs are pretreated with d-tubocurarine (1 mg/kg i.v.) and with indomethacin (10 mg/kg i.v.). When injected at a dose of 2 μg/kg i.v., U46619 causes a bronchoconstriction which leads to an increase in tracheal pressure and induces an increase in arterial blood pressure. The responses to U46619 are reversible and reproducible if the injections are carried out every 10 minutes.
The thromboxane receptor antagonists are injected 5 minutes before the injections of U46619. The dose of antagonist that inhibits by 50% the increase in tracheal pressure caused by U46619 is determined (IC50).

[4] = tested on: platelets (aggregation induced by U46619, a TXA2 receptor agonist); test: Platelet aggregation in rabbits (U46619-induced, PRP); type: cell-based; settings: Oryctolagus cuniculus, 0.05 h, rabbit PRP, U46619 1.2 μM, antagonist 3 min before agonist, 37° C., read-out: IC50 (50% inhibition of the aggregation response induced by U46619)
Procedure: Platelet Aggregation in Rabbits
Rabbits (2-3 kg) are anesthetized with pentobarbital sodium (30 mg/kg i.v.). After cannulation of the left carotid artery, blood is withdrawn onto sodium citrate (0.109M) (1 vol. of citrate per 9 vol. of blood). Platelet-rich plasma (PRP) is obtained by centrifugation (20° C.) at 250 g for 20 minutes, and platelet-poor plasma (PPP) by centrifugation at 1000 g (10 min). The number of platelets (PL) in the PRP is adjusted to 300-350,000 PL/mm^3 by dilution with autologous PPP. The PRP is stored at the temperature of the room until the time of the test, and is used within 4 hours following withdrawal from the animal.
Platelet aggregation is carried out at 37° C. in siliconed glass tubes using an aggregometer. The PRP and the PL are stirred at 1000 rpm (revolutions per minute). In order to study the activity of thromboxane antagonists, the PRP is incubated for 1 min at 37° C., and the antagonist is then added for a period of 3 min before addition of the agonist U46619 (1.2 μM). The final volume in the measuring cell is then 250 μl. The intensity of platelet aggregation is established by taking the maximum amplitude of aggregation plots and is expressed as a percentage light transmission (% T). […]

[5] = tested on: platelets (aggregation induced by U46619); test: Platelet aggregation in man (U46619-induced, PRP); type: cell-based; settings: human PRP, procedure of Example 22 (U46619 1.2 μM), read-out: IC50 (50% inhibition of platelet aggregation induced by U46619)
Procedure: Platelet aggregation is carried out at 37° C. in siliconed glass tubes using an aggregometer. The PRP and the PL are stirred at 1000 rpm (revolutions per minute). In order to study the activity of thromboxane antagonists, the PRP is incubated for 1 min at 37° C., and the antagonist is then added for a period of 3 min before addition of the agonist U46619 (1.2 μM). The final volume in the measuring cell is then 250 μl. The intensity of platelet aggregation is established by taking the maximum amplitude of aggregation plots and is expressed as a percentage light transmission (% T). The activity of the antagonists is expressed as IC50, that is to say the concentration of the substance which induces a 50% inhibition of the aggregation response induced by U46619.
Platelet Aggregation in Man
Venous blood is obtained from human volunteers who have not taken aspirin for at least 14 days prior to the experiment. The blood is withdrawn onto sodium citrate (0.109M) (1 vol. of citrate to 9 vol. of blood). Platelet-rich plasma (PRP) is obtained after centrifugation (20° C.) at 200 g for 10 minutes. The number of platelets is 250,000 PL/mm^3 on average. The PRP is stored at the temperature of the room until the time of the test, and is used within 2 hours following withdrawal from the subject. The antagonists are tested according to the procedure described in Example 22.

Row | SMILES | IC50 [1] [nM] | Kb [2] [nM] | ED50 [3] [mg/kg] | IC50 [4] [nM] | IC50 [5] [nM]
1 | O=C(O)CCC/C=C\CC1(CCNS(=O)(=O)c2ccc(Cl)cc2)CCCCC1 [Example 1, (5Z)-10-[(4-Chlorophenyl)sulfonamido]-8,8-pentamethylene-5-decenoic acid sodium salt] | 140 | 0.398 | 0.027 |  | 
2 | O=C(O)CC/C=C\CC1(CCNS(=O)(=O)c2ccc(Cl)cc2)CCCCC1 [Example 2, (4Z ) -9-[(4-Chlorophenyl)sulfonamido]-7 , 7-pentamethylene-4-nonenoic acid sodium salt] | 120 | 3.98 | 0.12 | 200 | 200
3 | O=C(O)CC/C=C\CC1(CCNS(=O)(=O)c2ccc(Cl)cc2)CCCC1 [Example 3, (4Z)-9-[(4-Chlorophenyl)sulfonamido]-7,7-tetramethylene-4-nonenoic acid sodium salt] | 60 | 0.501 | 0.019 |  | 80
4 | Cc1ccc(S(=O)(=O)NCCC2(C/C=C\CCCC(=O)O)CCCCC2)cc1 [Example 4, (5Z)-10-[(4-Methylphenyl)sulfonamido]-8,8-pentamethylene-5-decenoic acid sodium salt] | 200 | 3.16 | 0.105 |  | 
5 | O=C(O)CCC/C=C\CC1(CCNS(=O)(=O)c2ccc(Br)cc2)CCCCC1 [Example 5, (5Z)-10-[(4-Bromophenyl)sulfonamido]-8,8-pentamethylene-5-decenoic acid sodium salt] | 140 | 6.31 | 0.066 |  | 
6 | O=C(O)CC/C=C\CC1(CNS(=O)(=O)c2ccc(Cl)cc2)CCCC1 [Example 6, (4Z) -8-[(4-Chlorophenyl)sulfonamido]-7,7-tetramethylene-4-octenoic acid sodium salt] |  | 0.724 | 0.021 | 200 | 80
7 | O=C(O)CC/C=C\CC1(CNS(=O)(=O)c2ccc(Cl)cc2)CCCCC1 [Example 7, (4Z)-8-[(4-Chlorophenyl)sulfonamido]-7,7-pentamethylene-4-octenoic acid sodium salt] |  | 0.398 | 0.02 |  | 300
8 | O=C(O)CCC/C=C\CC1(CNS(=O)(=O)c2ccc(Cl)cc2)CCCC1 [Example 8, (5Z )-9-[(4-Chlorophenyl)sulfonamido]-8,8-tetramethylene-5-nonenoic acid sodium salt] |  | 0.234 | 0.007 |  | 300
9 | O=C(O)CC/C=C\CCC1(CNS(=O)(=O)c2ccc(Cl)cc2)CCCC1 [Example 9, (4Z)-9-[(4-Chlorophenyl)sulfonamido]-8,8-tetramethylene-4-nonenoic acid sodium salt] |  | 0.832 | 0.011 |  | 200
10 | O=C(O)CC/C=C\CCC1(NS(=O)(=O)c2ccc(Cl)cc2)CCCC1 [Example 10, (4Z)-8-[(4-Chlorophenyl)sulfonamido]-8,8-tetramethylene-4-octenoic acid sodium salt] |  | 22.4 |  |  | 
11 | O=C(O)CCC/C=C\CCC1(NS(=O)(=O)c2ccc(Cl)cc2)CCCC1 [Example 11, (5Z)-9-[(4-Chlorophenyl)sulfonamido]-9,9-tetramethylene-5-nonenoic acid sodium salt] |  | 20 |  |  | 
12 | O=C(O)CCC/C=C\CC1(CCNS(=O)(=O)c2ccc(Cl)cc2)CCCC1 [Example 12, (5Z)-10-[(4-Chlorophenyl)sulfonamido]-8,8-tetramethylene-5-decenoic acid sodium salt] | 150 | 1.05 | 0.009 |  | 500
13 | O=C(O)CC/C=C\CCC1(CCNS(=O)(=O)c2ccc(Cl)cc2)CCCC1 [Example 14, (4Z )-10-[(4-Chlorophenyl)sulfonamido]-8,8-tetramethylene-4-decenoic acid sodium salt] |  |  |  |  | 800
14 | O=C(O)CC/C=C\CC1(CCNS(=O)(=O)c2ccc(Cl)cc2)CCc2ccccc21 (stereo not drawn) [sodium salt] |  | 3.98 |  |  | 
